These results are taken from publication PMC11013010, “Serendipitous Identification of Azine Anticancer Agents Using a Privileged Scaffold Morphing Strategy” (Molecules, 2024).

Data set [1] can be described thus: Cytotoxicity assay (CellTiter Glo) on hepatocarcinoma cells. The class given is cell-based. The settings on record: human, Huh7 hepatocarcinoma cells, Huh7 hepatocarcinoma. Here is the method: (§1) Cell-based assays were carried out on the normal human fibroblast FB789 cell line (kindly provided by Elena Dell’Ambra from IRCCS Istituto Dermopatico dell’Immacolata, Rome), on the Huh7 hepatocarcinoma cell line (kindly provided by Istituto Toscano Tumori, Core Research Laboratory, Siena, Italy), on the Caco-2 adenocarcinoma colorectal cell line (ATCC catalog. n. HTB-37), on the suspension H9 cell line (repository code ARP0001, NIBSC Centre for AIDS reagents) and on the adherent TZM-bl cell line (repository code ARP5011, NIBSC Centre for AIDS reagents).
(§2) High glucose Dulbecco’s Modified Eagle Medium with sodium pyruvate and L-glutamine (DMEM; Euroclone) was used to grow Huh-7 and TZM-bl. Minimum Essential Eagle Medium (EMEM; Euroclone) was used to propagate Caco-2. DMEM and EMEM were supplemented with 10% fetal bovine serum (FBS; Euroclone) and 1% penicillin/streptomycin (Pen/Strep, Euroclone). The growth medium with a lower concentration of FBS (1%) was used for viral propagation, cytotoxic and antiviral experiments in adherent cell lines. […] All cell lines were grown at 37 °C in a 5% CO2 atmosphere in a humidified incubator.
(§3) The cytotoxicity of all investigated compounds was assayed in all cells lines as previously described. Briefly, confluent cells were treated with decreasing compound concentrations for 48h. The final DMSO concentration used was never greater than 0.5% v/v. Each experiment was performed in duplicate and repeated in two independent experiments. Cell viability was calculated using the CellTiter Glo 2.0 kit (Promega, Madison, WI, USA) and luminescence values signal obtained from cells treated with serial dilution of the compounds were measured through the GloMax® Discover Multi mode Microplate Reader (Promega) and elaborated with GraphPad PRISM software version 9.0 (La Jolla, San Diego, CA, USA). […] A non-toxic dose of each compound was used as the starting concentration in the antiviral activity assay.
Background: Cellular ATP, detected with luciferase, serves as a proxy for viable cell number.

Data set [2] has as its system Huh7 cells. Described as above. The format is cell-based. The settings on record: ratio CC50 FB789 / CC50 Huh7. As to the method: as §1, §2, §3
The nature of data set [3]: Cytotoxicity assay (CellTiter Glo) on colon epithelial carcinoma cells. The conditions noted are these: human, Caco-2.
In data set [4] the test system is Caco-2 cells. The description is as above. The settings on record: ratio CC50 FB789 / CC50 Caco-2.
A short description of data set [5]: Cytotoxicity assay (CellTiter Glo) on normal fibroblasts. The class given is cell-based, human. The conditions noted are these: human, FB789 normal fibroblast cells. Here is the method: as §1
The FB789 was cultured in Dulbecco’s Modified Eagle Medium (DMEM) and Ham’s F10 in a ratio of 50%, supplemented with 10% FBS, 2 mM L-glutamine, and 10,000 unit/mL penicillin/streptomycin.
as §3

Data set [6] in a line: Cytotoxicity assay (CellTiter Glo) on lymphoma cells. The conditions noted are these: human.
Data set [7] deals with H9 cells. The description is as above. The conditions noted are these: ratio CC50 FB789 / CC50 H9.
The mark [8] stands for this setting: triazines 1-9, read-out 48 h, Cell-Titer Glo.
[9] abbreviates: pyrimidines and pyridines, read out at 48 h, mean ± SD.

A word on the CC50: it is the concentration at which the toxic effect on the cells reaches its halfway point. As to `CC(=O)Nc1ccc(/C=N/Nc2nc(N3CCOCC3)nc(N3CCOCC3)n2)cc1` [Compound 2], the CC50 at 48 h in data set [1] (triazines 1-9, read-out 48 h) was > 200 µM; in data set [3], > 200 µM; in data set [5] (setting [8]) it was 134 ± 11 µM; in data set [6], > 100 µM. Further, the “TSI Huh7” value in data set [2] (triazines 1-9) is listed as <0.7. For the same compound, the “TSI Caco-2” value in data set [4] (triazines 1-9) is <0.7. Moreover, the “TSI H9” value in data set [7] (triazines 1-9) was <1.3.

With `Oc1ccccc1/C=N/Nc1nc(Nc2ccc(F)cc2)nc(Nc2ccc(F)cc2)n1` [Compound 7], the CC50 at 48 h in data set [1] (triazines 1-9, read-out 48 h) was 2 ± 0.4 µM; in data set [3], 0.8 ± 0.1 µM; in data set [5] (setting [8]), 7 ± 2 µM; in data set [6] it was 2 ± 1 µM. The “TSI Huh7” value in data set [2] (triazines 1-9) was 3.5. The “TSI Caco-2” value in data set [4] (triazines 1-9) is recorded as 8.8. The “TSI H9” value in data set [7] (triazines 1-9) is on record as 3.5.

For the compound `CC(=O)Nc1ccc(/C=N/Nc2nc(Nc3ccc(F)cc3)nc(N3CCOCC3)n2)cc1` [Compound 5], the CC50 at 48 h was 45 ± 6 µM in data set [1] (triazines 1-9, read-out 48 h); 70 ± 6 µM in data set [3]; 27 ± 3 µM in data set [5] (setting [8]); 30 ± 5 µM in data set [6]. Moreover, the “TSI Huh7” value in data set [2] (triazines 1-9) is 0.6. In data set [4] (triazines 1-9), the “TSI Caco-2” value amounted to 0.4. In data set [7] (triazines 1-9), the “TSI H9” value was 0.9.

As for `CC(=O)Nc1ccc(/C=N/Nc2nc(Nc3ccc(F)cc3)nc(Nc3ccc(F)cc3)n2)cc1` [Compound 8], the CC50 at 48 h in data set [1] (triazines 1-9, read-out 48 h) is > 200 µM; in data set [3], > 200 µM; in data set [5] (setting [8]), 57 ± 7 µM; in data set [6], > 100 µM. For the same compound, the “TSI Huh7” value in data set [2] (triazines 1-9) was <0.3. Also, the “TSI Caco-2” value in data set [4] (triazines 1-9) was <0.3. The “TSI H9” value in data set [7] (triazines 1-9) is <0.6.

With `Cc1cccc(/C=N/Nc2nc(Nc3ccc(F)cc3)nc(Nc3ccc(F)cc3)n2)c1` [Compound 9], the CC50 at 48 h in data set [1] (triazines 1-9, read-out 48 h) was > 200 µM; in data set [3] it was 200 µM; in data set [5] (setting [8]), 50 ± 5 µM; in data set [6] it was > 100 µM.

As to `Cc1cccc(/C=N/Nc2nc(Nc3ccc(F)cc3)nc(N3CCOCC3)n2)c1` [Compound 6], the cytotoxic concentration (CC50) at 48 h is 47 ± 5 µM in data set [1] (triazines 1-9, read-out 48 h); 22 ± 2 µM in data set [3]; 100 ± 8 µM in data set [5] (setting [8]); > 100 µM in data set [6]. In addition, in data set [2] (triazines 1-9), the “TSI Huh7” value is given as 2.1. In data set [4] (triazines 1-9), the “TSI Caco-2” value is 4.5. In addition, in data set [7] (triazines 1-9), the “TSI H9” value is recorded as <1.0.

Consider `Cc1cccc(/C=N/Nc2cc(N3CCOCC3)nc(N3CCOCC3)c2)c1` [Compound 27b], for which the CC50 at 48 h in data set [1] (setting [9]) was 39 ± 3 µM; in data set [3], 30 ± 2 µM; in data set [5] (setting [9]), 81 ± 2 µM; in data set [6], 50 ± 4 µM. Further, the “TSI Caco-2” value in data set [4] (pyrimidines and pyridines) came to 2.7.

For the compound `Oc1ccccc1/C=N/Nc1cc(N2CCOCC2)nc(N2CCOCC2)n1` [Compound 14a], the CC50 at 48 h in data set [1] (setting [9]) was 82 ± 6 µM; in data set [3], 84 ± 7 µM; in data set [5] (setting [9]), 30 ± 6 µM; in data set [6], > 100 µM.

`Cc1cccc(/C=N/Nc2nc(N3CCOCC3)nc(N3CCOCC3)n2)c1` [Compound 3]: the CC50 at 48 h came to 45 ± 10 µM in data set [1] (triazines 1-9, read-out 48 h); 184 ± 11 µM in data set [3]; 250 ± 10 µM in data set [5] (setting [8]); 74 ± 6.2 µM in data set [6]. In data set [2] (triazines 1-9), the “TSI Huh7” value was found to be 5.6. Moreover, the “TSI Caco-2” value in data set [4] (triazines 1-9) is on record as 1.4. In addition, the “TSI H9” value in data set [7] (triazines 1-9) was determined as 3.4.

`Oc1ccccc1/C=N/Nc1cc(Nc2ccc(F)cc2)nc(Nc2ccc(F)cc2)c1` [Compound 33a]: the CC50 at 48 h was 18 ± 5 µM in data set [1] (setting [9]), 12 ± 4 µM in data set [3], 0.3 ± 0.3 µM in data set [5] (setting [9]) and 43 ± 9 µM in data set [6]. In data set [2] (pyrimidines and pyridines), the “TSI Huh7” value is listed as 0.02. Besides, in data set [4] (pyrimidines and pyridines), the “TSI Caco-2” value came to 0.03. Besides, the “TSI H9” value in data set [7] (pyrimidines and pyridines) turned out to be 0.01.

Consider `Oc1ccccc1/C=N/Nc1cc(N2CCOCC2)nc(N2CCOCC2)c1` [Compound 27a], for which the CC50 at 48 h in data set [1] (setting [9]) turned out to be 44 ± 5 µM; in data set [3], 29 ± 2 µM; in data set [5] (setting [9]), 11 ± 3 µM; in data set [6], 76 ± 4 µM.

As to `Oc1ccccc1/C=N/Nc1cc(Nc2ccc(F)cc2)nc(N2CCOCC2)c1` [Compound 38a], the CC50 at 48 h stood at 24 ± 14 µM in data set [1] (setting [9]), 19 ± 0.1 µM in data set [3], 3 ± 1 µM in data set [5] (setting [9]) and 37 ± 2 µM in data set [6]. Besides, the “TSI Huh7” value in data set [2] (pyrimidines and pyridines) is on record as 0.1. The “TSI Caco-2” value in data set [4] (pyrimidines and pyridines) turned out to be 0.2. In addition, in data set [7] (pyrimidines and pyridines), the “TSI H9” value stood at 0.1.

For the compound `Cc1cccc(/C=N/Nc2cc(Nc3ccc(F)cc3)nc(N3CCOCC3)n2)c1` [Compound 21b], the CC50 at 48 h is 67 ± 23 µM in data set [1] (setting [9]), 113 ± 4 µM in data set [3], 95 ± 1 µM in data set [5] (setting [9]) and > 100 µM in data set [6]. Further, the “TSI Caco-2” value in data set [4] (pyrimidines and pyridines) was determined as 0.8. Also, in data set [7] (pyrimidines and pyridines), the “TSI H9” value was <1.0.

Consider `Cc1cccc(/C=N/Nc2cc(N3CCOCC3)nc(N3CCOCC3)n2)c1` [Compound 14b], for which the CC50 at 48 h was found to be 8 ± 4 µM in data set [1] (setting [9]), 11 ± 2 µM in data set [3], 9 ± 1 µM in data set [5] (setting [9]) and 14 ± 7 µM in data set [6]. For the same compound, the “TSI Caco-2” value in data set [4] (pyrimidines and pyridines) is reported as 0.8.
